From ChEMBL document CHEMBL3758098, “3-(Dipropylamino)-5-hydroxybenzofuro[2,3-f]quinazolin-1(2H)-one (DPA-HBFQ-1) plays an inhibitory role on breast cancer cell growth and progression” (Eur J Med Chem, 2016)
Calls of active or inactive are those of the source. The rule behind the calls is not given here.

Tests used:
[1] = Cytotoxicity against human MCF10A cells assessed as growth inhibition at 1 uM after 5 days by MTT assay relative to vehicle-treated control; format: cell-based; conditions: mcf-10a, 120 h
MDA-MB-231 [2] = assay: Cytotoxicity against human MDA-MB-231 cells assessed as growth inhibition at 1 uM after 5 days by MTT assay relative to vehicle-treated control; format: functional
MCF7 [3] = assay: Cytotoxicity against human MCF7 cells assessed as growth inhibition at 1 uM after 5 days by MTT assay relative to vehicle-treated control; format: functional; conditions: MCF7, 120 h, read-out: GI
[4] = Cytotoxicity against human MCF10A cells assessed as cell viability after 5 days by MTT assay; format: cell-based; conditions: MCF-10A, 120 h
[5] = Cytotoxicity against rat R2C cells assessed as growth inhibition by MTT assay; format: functional, cell-based
MDA-MB-231 [6] = assay: Cytotoxicity against human MDA-MB-231 cells assessed as cell viability after 5 days by MTT assay; format: functional, cell-based; conditions: MDA-MB-231, 120 h
[7] = biological target: T1, DNA topoisomerase 1 (Homo sapiens) (UniProt P11387); assay: Inhibition of recombinant human topoisomerase 1 assessed as relaxation of supercoiled pHOT1 at 50 uM after 30 mins by agarose gel electrophoresis
T1 sequence (whole entry): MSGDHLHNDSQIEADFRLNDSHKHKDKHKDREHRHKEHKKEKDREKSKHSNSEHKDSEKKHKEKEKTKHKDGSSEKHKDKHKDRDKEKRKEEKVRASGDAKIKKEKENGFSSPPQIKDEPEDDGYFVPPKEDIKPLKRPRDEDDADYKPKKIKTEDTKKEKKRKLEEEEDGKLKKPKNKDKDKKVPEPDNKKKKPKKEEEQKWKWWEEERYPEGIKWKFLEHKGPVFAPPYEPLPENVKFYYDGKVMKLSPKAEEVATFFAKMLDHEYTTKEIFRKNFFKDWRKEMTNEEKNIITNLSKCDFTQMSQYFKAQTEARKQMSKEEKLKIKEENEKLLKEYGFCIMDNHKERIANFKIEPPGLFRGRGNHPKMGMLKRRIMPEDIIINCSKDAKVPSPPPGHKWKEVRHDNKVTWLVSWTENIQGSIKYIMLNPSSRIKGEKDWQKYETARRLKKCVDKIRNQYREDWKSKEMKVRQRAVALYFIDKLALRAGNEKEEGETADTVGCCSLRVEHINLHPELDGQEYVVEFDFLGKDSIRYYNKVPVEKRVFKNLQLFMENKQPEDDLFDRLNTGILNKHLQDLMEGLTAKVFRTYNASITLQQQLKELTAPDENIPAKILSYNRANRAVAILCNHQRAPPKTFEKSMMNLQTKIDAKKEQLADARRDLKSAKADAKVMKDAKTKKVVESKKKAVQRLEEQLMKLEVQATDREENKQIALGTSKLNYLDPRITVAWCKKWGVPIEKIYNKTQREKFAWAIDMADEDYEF

HeLa = assay: Cytotoxicity against human HeLa cells assessed as growth inhibition by MTT assay; format: functional, cell-based
[8] = biological target: T1, DNA topoisomerase 1 (Homo sapiens); assay: Inhibition of recombinant human topoisomerase 1 assessed as relaxation of supercoiled pHOT1 at 10 uM after 30 mins by agarose gel electrophoresis
[9] = biological target: DNA topoisomerase 2-alpha (Homo sapiens) (UniProt P11388); conditions: 10 uM
Sequence of DNA topoisomerase 2-alpha (Homo sapiens) (P11388 whole entry): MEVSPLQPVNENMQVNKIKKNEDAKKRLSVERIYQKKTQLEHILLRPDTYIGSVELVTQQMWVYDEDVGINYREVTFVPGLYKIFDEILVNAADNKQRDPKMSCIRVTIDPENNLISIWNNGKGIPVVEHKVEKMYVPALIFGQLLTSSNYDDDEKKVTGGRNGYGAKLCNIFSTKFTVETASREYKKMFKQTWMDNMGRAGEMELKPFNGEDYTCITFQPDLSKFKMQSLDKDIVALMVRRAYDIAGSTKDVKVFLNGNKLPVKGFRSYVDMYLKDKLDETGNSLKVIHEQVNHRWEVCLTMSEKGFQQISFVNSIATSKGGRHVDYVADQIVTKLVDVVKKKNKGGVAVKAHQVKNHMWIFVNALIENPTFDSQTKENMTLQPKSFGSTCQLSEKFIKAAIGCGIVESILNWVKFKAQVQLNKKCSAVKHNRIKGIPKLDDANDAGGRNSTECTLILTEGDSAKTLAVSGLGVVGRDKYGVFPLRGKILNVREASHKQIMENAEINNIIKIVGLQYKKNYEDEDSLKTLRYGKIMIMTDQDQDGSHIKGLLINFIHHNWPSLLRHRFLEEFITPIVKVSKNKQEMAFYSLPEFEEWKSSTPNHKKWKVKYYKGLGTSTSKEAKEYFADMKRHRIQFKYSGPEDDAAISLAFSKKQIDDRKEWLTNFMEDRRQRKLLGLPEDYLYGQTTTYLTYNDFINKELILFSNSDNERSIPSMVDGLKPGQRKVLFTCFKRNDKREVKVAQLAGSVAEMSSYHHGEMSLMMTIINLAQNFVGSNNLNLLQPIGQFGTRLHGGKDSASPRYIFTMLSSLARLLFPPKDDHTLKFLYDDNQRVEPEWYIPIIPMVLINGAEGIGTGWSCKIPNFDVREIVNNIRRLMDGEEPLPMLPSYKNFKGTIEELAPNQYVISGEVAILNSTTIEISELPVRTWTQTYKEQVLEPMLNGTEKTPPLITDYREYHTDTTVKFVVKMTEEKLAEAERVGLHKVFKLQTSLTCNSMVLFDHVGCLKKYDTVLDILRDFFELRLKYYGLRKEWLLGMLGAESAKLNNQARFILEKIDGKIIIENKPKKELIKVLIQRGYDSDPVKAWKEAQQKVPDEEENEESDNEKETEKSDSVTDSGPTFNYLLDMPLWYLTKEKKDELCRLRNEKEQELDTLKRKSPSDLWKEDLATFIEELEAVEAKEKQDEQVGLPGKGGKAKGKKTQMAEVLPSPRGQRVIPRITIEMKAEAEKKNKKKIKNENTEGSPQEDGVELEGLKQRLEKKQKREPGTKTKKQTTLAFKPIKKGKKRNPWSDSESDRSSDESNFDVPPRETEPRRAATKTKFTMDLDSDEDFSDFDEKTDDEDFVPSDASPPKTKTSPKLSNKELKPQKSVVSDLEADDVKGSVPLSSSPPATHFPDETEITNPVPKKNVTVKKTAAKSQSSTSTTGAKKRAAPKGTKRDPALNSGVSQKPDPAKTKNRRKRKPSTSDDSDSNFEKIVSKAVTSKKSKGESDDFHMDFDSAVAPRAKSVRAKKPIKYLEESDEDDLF
Description: Inhibition of human topoisomerase 2 assessed as decatenation of kDNA at 10 uM after 30 mins by agarose gel electrophoresis

MCF7 [10] = assay: Cytotoxicity against human MCF7 cells assessed as cell viability after 5 days by MTT assay; format: functional, cell-based; conditions: MCF7, 120 h
Ishikawa = assay: Cytotoxicity against human Ishikawa cells assessed as growth inhibition by MTT assay; format: functional, cell-based
HepG2 = assay: Cytotoxicity against human HepG2 cells assessed as growth inhibition by MTT assay; format: functional, cell-based
[11] = Cytotoxicity against human MCF-7 TR1 cells assessed as cell colony formation after 14 days by crystal violet staining-based assay; format: functional; conditions: MCF-7 TR1, 336 h
[12] = biological target: DNA topoisomerase 2-alpha (Homo sapiens) (UniProt P11388); conditions: 50 uM
Description: Inhibition of human topoisomerase 2 assessed as decatenation of kDNA at 50 uM after 30 mins by agarose gel electrophoresis

SMILES	Activity [1]	growth inhibition (GI) (MDA-MB-231 [2])	inhibition of growth at 1 µM (MCF7 [3])	IC50 [4]	IC50 [5]	IC50 (MDA-MB-231 [6])	inhibition [7]	IC50 (HeLa)	inhibition [8]	inhibition [9]	IC50 (MCF7 [10])	IC50 (Ishikawa)	IC50 (HepG2)	IC50 [11]	inhibition [12]
CCCCN(CCCC)c1nc2c(OC)cc3c4ccccc4oc3c2c(=O)[nH]1	Non-toxic	Active	25%												
Cc1c2ccncc2c(C)c2c1[nH]c1ccccc12 [ELLIPTECINE]				1200 nM	2000 nM	1820 nM	Active	1000 nM	Active	Active	1250 nM	1500 nM	2900 nM	1750 nM	Active
